In ChEMBL document CHEMBL1147525, “Structure-activity relationships of untenone A and its derivatives for inhibition of DNA polymerases” (Bioorg Med Chem Lett, 2004):

Legend:
Nucleic Acid [1] = test: Inhibitory activity against mammalian DNA polymerase alpha; type: nucleic-acid assay
Nucleic Acid [2] = test: Inhibitory activity against mammalian DNA polymerase beta; type: nucleic-acid assay
[3] = biological target: DNA nucleotidylexotransferase (Homo sapiens, UniProt P04053); test: Inhibitory activity against human terminal deoxynucleotidyltransferase
Chain of DNA nucleotidylexotransferase (P04053 whole entry): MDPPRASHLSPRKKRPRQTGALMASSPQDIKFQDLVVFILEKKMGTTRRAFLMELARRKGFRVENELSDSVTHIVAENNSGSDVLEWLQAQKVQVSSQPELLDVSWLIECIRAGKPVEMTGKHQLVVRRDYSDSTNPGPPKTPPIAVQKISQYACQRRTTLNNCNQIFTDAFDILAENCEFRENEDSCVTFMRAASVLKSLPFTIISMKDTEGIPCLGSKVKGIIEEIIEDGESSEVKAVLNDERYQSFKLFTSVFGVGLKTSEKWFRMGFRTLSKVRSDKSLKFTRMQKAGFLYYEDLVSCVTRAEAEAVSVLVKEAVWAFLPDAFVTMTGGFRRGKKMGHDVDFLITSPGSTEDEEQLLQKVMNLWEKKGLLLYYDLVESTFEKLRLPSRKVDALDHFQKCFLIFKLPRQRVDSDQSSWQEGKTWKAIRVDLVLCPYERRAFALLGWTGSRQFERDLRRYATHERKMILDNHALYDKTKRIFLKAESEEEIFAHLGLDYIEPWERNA

| IC50 (Nucleic Acid [1]) [µM] | IC50 (Nucleic Acid [2]) [µM] | IC50 [3] [µM] | SMILES |
| --- | --- | --- | --- |
| 17 | 107 | 129 | CCCCCCCCCCCCCCCCC1=C(C(=O)OC)C(=O)CC1 |
| 5.9 | 9.3 | 18 | CCCCCCCCCCCCCCCC[C@]1(OCOC)C=CC(=O)[C@H]1C(=O)OC (racemic) |
| > 200 | > 200 | > 200 | CCCCCCCCCCCCCCCC[C@]1(O)C=CC(=O)C1 (racemic) |
| 20 | 90 | 84 | CCCCCCCCCCCCCCCC[C@H]1C=CC(=O)[C@@H]1C(=O)OC (racemic) |
| 1.9 | 3.2 | 2.5 | CCCCCCCCCCCCCCCCC1=C[C@H](C(=O)O)[C@H]2CC(C(=O)O)=C(CCCCCCCCCCCCCCCC)[C@H]2[C@H]1C(=O)OC (racemic) |
| 4.3 | 57 | 16 | CCCCCCCCCCCCCCCC[C@]1(O)C=CC(=O)[C@H]1C(=O)OC (racemic) [UNTENONE A] |
